From patent US20130136693A1, “Crystal Forms of 2--Adenosine” (King Pharmaceuticals Research and Development, Inc, priority 2008, published 2013) come the findings set out here.

Holding throughout (type): physicochemical
Series [1] is described as follows: competitive slurry experiments (XRPD of remaining solids). The note with it: 25 °C, 24 h. Here is the method: Two different types of slurry experiments may be performed, i.e., competitive and noncompetitive slurry experiments. Competitive slurry experiments are performed by mixing excess amounts of non-solvated polymorphic forms together in different solvents and agitating the mixture isothermally. These types of slurry experiments may be used to determine which form is more thermodynamically stable (under the conditions tested).
When competitive slurry experiments are performed, the nucleation step is generally bypassed. Because the two (or more) forms placed into contact with the solvent have different solubilities, particles of the form with the lower solubility grow at the expense of the more soluble form. This occurs since the more soluble form is saturated, and the less soluble form is supersaturated.
(§1) In general, slurry experiments are performed by agitating approximately 0.01 g to 2.5 g of material in 0.5 mL to 50 mL of slurry solvent. Uniform agitation and temperature control are accomplished using, e.g., Reacti-Therm heating modules and small Teflon coated stir bars. The duration of the slurry experiments is often around 24 h (although in some cases the experiments may be continued for several weeks). At the end of the slurry experiment, remaining undissolved solids are collected by vacuum filtration. To avoid inducing any type of physical change, the solids are not subjected to additional drying before the XRPD analysis.
In addition to the pure solvent noncompetitive slurry experiments performed, three competitive slurry experiments in Table 8 are performed at room temperature. These slurry experiments are composed of an approximately 50/50 mixture of Form I and Form II solids. Three different solvents are used to perform the competitive slurry experiments: DCM, i-PrOAc and EtOAc.

The nature of series [2]: non-competitive slurry experiments (XRPD of remaining solids). As to conditions: for Final Form (XRPD): 4 h. Here is the method: In an alternative aspect of the present invention, solid forms of binodenoson may be suspended in a suitable solvent at a temperature of at least 10° C., preferably at a temperature ranging from about 25° C. to about 60° C. Under suitable conditions, a suspension/slurry results in which particles of solid are dispersed, and remain incompletely dissolved in the solvent. Preferably, the solids are maintained in a state of suspension by agitation, e.g., by shaking or stirring. The suspension/slurry is then kept at a temperature of 10° C. or higher, e.g., at a temperature ranging from about 25° C. to about 60° C., for a time sufficient to effect transformation of the starting solids into product crystals. The product crystals may then be isolated and dried using conventional methods in the art. In the presence of water, all crystal forms of binodenoson will convert to Form II hydrate.
Noncompetitive slurry experiments are useful for identifying solvent mediated conditions useful for converting one crystalline form to another. In these experiments, excess material of a single crystal form is mixed with a solvent under isothermal conditions. These experiments rely on differences in solubility of the different polymorphic forms. […] Essentially, when a polymorph is suspended in a suitable solvent, a saturated solution phase (eventually) results. The solution phase is saturated with respect to the polymorphic form dissolved.
The results of these experiments often depend on nucleation kinetics and the presence of impurities that may inhibit nuclei growth of other stable crystalline modifications.
as §1

Series [3] in a line: solubility studies in EtOH. The method, then:
In the current set of results, Form I crystals readily transforms into Form II crystals in EtOAc at 60° C. for 4 h (experiment No. 7). […] Thus, Form I appears to convert to Form II, but really converts to Form II hydrate. […] Thus, in the presence of residual water, Form II is obtained in the isostructural hydrate form, whereas in a completely anhydrous system, Form I results.

A short description of series [4]: drying of crystals, crystal form checked by XRPD. The method, then: Furthermore, TGA and ^1H-NMR indicate that Form I crystals may also contain approximately 4 wt-% of ethanol (FIG. 1A).
In accordance with the TG data, after a few minutes at 125° C. in the KF oven, most of the weight loss from ethanol and water is complete affording Form I crystals in an anhydrous form (FIG. 1B). […] A comparison of the calorimetric behavior of the anhydrous Form I crystals and the Form I crystals containing residual solvents (“undried”) is summarized in Table 1:
Form II crystal form may be obtained in a hydrated form or in an anhydrous form. For example, slow crystallization from lower alcohols such as MeOH and EtOH in the presence of residual water provides hydrated Form II crystals.

The nature of series [5]: moisture sorption analysis. The note with it: relative humidity of about 94%, 14 days, 25° C.

On to `Nc1nc(NN=CC2CCCCC2)nc2c1ncn2[C@@H]1O[C@H](CO)C(O)C1O` (stereo partly drawn) [Form I & II, 2-{2-[(cyclohexyl)methylene]-hydrazino}adenosine], for which the “Final Form (XRPD)” value in series [1] (experiment No. 11: DCM), in series [1] (experiment No. 12: i-PrOAc) and in series [1] (experiment No. 13: EtOAc) was “II^b” throughout.

With `Nc1nc(NN=CC2CCCCC2)nc2c1ncn2[C@@H]1O[C@H](CO)[C@@H](O)[C@H]1O` [Form I, 2-{2-[(cyclohexyl)methylene]-hydrazino}adenosine], the “Final Form (XRPD)” value in series [2] (experiment No. 1: EtOAc, 40 °C) was “amorphous”; in series [2] (experiment No. 2: EtOH, 40 °C), “all dissolved”; in series [2] (experiment No. 4: i-Pr2O, 40 °C) it was “amorphous”; in series [2] (experiment No. 5: MeOH, 40 °C), “all dissolved”; in series [2] (experiment No. 7: EtOAc, 60 °C), “II^b”. Further, in series [3] (when water is not present, from solubilities), the “thermodynamic stability relative to Form II” value is recorded as “thermodynamically more stable than Form II”. Moreover, the “change of crystalline form upon drying (XRPD)” value in series [4] (drying under nitrogen, 125° C. in the KF oven) was “does not change significantly”. Besides, the hygroscopicity entry in series [5] was “non-hygroscopic”.

`Nc1nc(NN=CC2CCCCC2)nc2c1ncn2[C@@H]1O[C@H](CO)[C@@H](O)[C@H]1O` [Form II hydrate, 2-{2-[(cyclohexyl)methylene]-hydrazino}adenosine]: in series [3] (presence of residual water, deduced), the “solubility of the isostructural hydrate” value is recorded as “lower solubility than that of Form I”. Also, in series [4] (drying the hydrated crystals), the “change of XRPD pattern upon drying” value is listed as “does not change the XRPD pattern”.

As to `Nc1nc(NN=CC2CCCCC2)nc2c1ncn2[C@@H]1O[C@H](CO)[C@@H](O)[C@H]1O` [Form II, 2-{2-[(cyclohexyl)methylene]-hydrazino}adenosine], the “solubility compared with Form I” value in series [3] (anhydrous Forms I and II compared in EtOH) is recorded as “much higher solubility”. The “behaviour during solubility studies” value in series [3] (dry EtOH) is “completely dissolve and recrystallize as Form I”.

For the molecule `Nc1nc(NN=CC2CCCCC2)nc2c1ncn2[C@@H]1O[C@H](CO)[C@@H](O)[C@H]1O` [Form V, 2-{2-[(cyclohexyl)methylene]-hydrazino}adenosine], the “stability relative to Form I” value in series [2] (at 40° C., from experiment No. 6 (DCM slurry)) was “more stable than Form I”.

With `Nc1nc(NN=CC2CCCCC2)nc2c1ncn2[C@@H]1O[C@H](CO)[C@@H](O)[C@H]1O` [anhydrous Form I, 2-{2-[(cyclohexyl)methylene]-hydrazino}adenosine], in series [5], the “crystal form after moisture sorption analysis” value is “remains the same” and the “weight gain in moisture sorption analysis” value is on record as “approximately 1.3%”.
